Measured values: patent US9926369B2, “Methods for treating hepatocellular cancer by administering an anti-Ang-2 antibody” (Regeneron Pharmaceuticals, Inc., priority 2009, dated 2018)

What was measured:
[1] = tested on: Ang-1-mediated Tie-2 phosphorylation in EA.hy926 cells; test: Inhibition of Ang-1-mediated Tie-2 phosphorylation in EA.hy926 cells; assay type: cell-based, human; details: up to 400 nM
Procedure: EA.hy926 cells (Edgell et al., Proc. Natl. Acad. Sci. USA 80:3734-3737 (1983)) were plated at 5×10^6 cells per 10 cm dish in 10 ml DMEM with 10% FBS, HAT, L-glutamine and penicillin/streptomycin. After 24 hours, cells were serum-starved for 1 hour in 10 ml DMEM+1 mg/ml BSA. Cells were then stimulated for 10 minutes with 500 ng/ml of recombinant human Ang-1 (R&D Systems) in the presence of either an irrelevant isotype control antibody (“9E10”) at 400 nM or the anti-Ang-2 antibody H1H685P, or control agents (Control I, Control II, Control IV, or Control V) at concentrations ranging from 10 to 400 nM.
Following incubation, cells were lysed and Tie-2 was immunoprecipitated as described by Daly et al., Proc. Natl. Acad. Sci. USA 103:15491-15496 (2006). Immune complexes were collected by incubation with protein A/G beads (Santa Cruz Biotechnology, Santa Cruz, Calif.) for 60 min. Beads were washed with cold lysis buffer and bound proteins were eluted by heating in SDS sample buffer. Samples were then subjected to Western blot analysis with monoclonal antibodies against Tie-2 or phosphotyrosine (clone 4G10, Millipore, Billerica, Mass.).
Signals were detected using HRP-conjugated secondary antibodies and ECL reagents (GE Healthcare, Piscataway, N.J.). X-ray films were scanned and the phospho-Tie-2 and Tie-2 signals were quantified using ImageJ software. […]

[2] = tested on: Monkey Ang-2FD-hFc binding to hTie-2-mFc; test: ELISA blocking of monkey Ang-2FD-hFc binding to hTie-2-mFc; assay type: biochemical; details: 16.67 nM antibody; 2 nM Ang-2FD-hFc
Procedure: Tie-2 is a natural receptor for Ang-2. Anti-Ang-2 antibodies were tested for their ability to block Ang-2 binding to human Tie-2 (hTie-2). hTie-2-mFc (a chimeric construct consisting of human Tie-2 conjugated to mouse IgG; SEQ ID NO:525) was coated onto 96-well plates at a concentration of 2 μg/ml and incubated overnight followed by washing four times in wash buffer (PBS with 0.05% Tween-20). The plate was then blocked with PBS (Irvine Scientific, Santa Ana, Calif.) containing 0.5% BSA (Sigma-Aldrich Corp., St. Louis, Mo.) for one hour at room temperature. In a separate plate, purified anti-Ang-2 antibodies, at a starting concentration of 50 nM, were serially diluted by a factor of three across the plate. Human, mouse or monkey Ang-2FD protein conjugated to human IgG (Ang-2FD-hFc) were added to final concentrations of 2 nM, 8 nM, or 2 nM respectively and incubated for one hour at room temperature. The antibody/Ang-2FD-Fc mixture was then added to the plate containing hTie-2-mFc and incubated for one hour at room temperature. Detection of Ang-2FD-hFc bound to hTie-2-mFc protein was determined with Horse-Radish Peroxidase (HRP) conjugated to a-human IgG antibody (Jackson Immuno Research Lab, West Grove, Pa.) and developed by standard colorimetric response using tetramethylbenzidine (TMB) substrate (BD Biosciences, San Jose, Calif.). Absorbance was read at OD450 for 0.1 sec.

Sequence of Monkey Ang-2FD-hFc binding to hTie-2-mFc (as listed by the source): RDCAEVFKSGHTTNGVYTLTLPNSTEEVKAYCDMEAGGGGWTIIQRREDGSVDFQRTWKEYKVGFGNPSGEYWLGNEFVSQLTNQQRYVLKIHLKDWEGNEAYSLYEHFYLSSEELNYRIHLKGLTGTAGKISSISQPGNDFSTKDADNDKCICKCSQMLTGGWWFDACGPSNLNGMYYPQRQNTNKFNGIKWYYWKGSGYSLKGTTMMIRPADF
Sequence of Monkey Ang-2FD-hFc binding to hTie-2-mFc (Q02763 with tags, fused parts or gaps Q346P/T695I partner limits assumed): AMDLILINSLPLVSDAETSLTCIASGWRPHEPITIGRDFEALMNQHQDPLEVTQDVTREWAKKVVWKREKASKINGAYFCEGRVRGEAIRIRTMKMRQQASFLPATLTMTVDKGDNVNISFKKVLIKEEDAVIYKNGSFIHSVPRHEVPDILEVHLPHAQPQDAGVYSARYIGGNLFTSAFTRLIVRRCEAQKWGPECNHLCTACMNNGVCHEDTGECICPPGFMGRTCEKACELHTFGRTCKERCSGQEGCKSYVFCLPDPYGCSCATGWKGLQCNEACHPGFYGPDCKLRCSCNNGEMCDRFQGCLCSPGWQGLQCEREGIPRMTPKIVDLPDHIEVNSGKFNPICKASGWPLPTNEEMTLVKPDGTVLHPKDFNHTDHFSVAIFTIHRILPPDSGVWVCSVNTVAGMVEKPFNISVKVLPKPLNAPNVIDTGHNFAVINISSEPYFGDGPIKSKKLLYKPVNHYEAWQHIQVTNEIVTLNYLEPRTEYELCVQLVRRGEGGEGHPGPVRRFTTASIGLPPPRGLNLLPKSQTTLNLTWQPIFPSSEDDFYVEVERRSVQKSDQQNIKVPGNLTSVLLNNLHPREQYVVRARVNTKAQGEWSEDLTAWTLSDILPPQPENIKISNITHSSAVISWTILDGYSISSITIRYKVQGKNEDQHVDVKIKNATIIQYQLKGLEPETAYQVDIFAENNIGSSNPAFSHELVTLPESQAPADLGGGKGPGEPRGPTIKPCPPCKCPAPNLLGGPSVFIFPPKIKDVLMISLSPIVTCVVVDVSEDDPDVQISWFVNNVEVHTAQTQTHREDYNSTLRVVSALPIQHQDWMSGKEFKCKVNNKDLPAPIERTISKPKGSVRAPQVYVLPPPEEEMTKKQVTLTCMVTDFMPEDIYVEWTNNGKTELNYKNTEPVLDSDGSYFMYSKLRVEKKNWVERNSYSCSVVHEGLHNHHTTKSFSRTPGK

In the case of “H1H685P: human anti-Ang-2 antibody, HCVR/LCVR SEQ ID NOs 18/20; also referred to as mAb1 [Antibody H1H685P]”, the “Inhibitory effect on Ang-1-induced Tie-2 phosphorylation (in words)” value [1] is reported as “no significant inhibitory effect” and the “Percent Blocking of Ang-2FD Binding to Tie-2, Monkey Ang-2FD-hFc” value [2] is reported as 62.2%.
